# Source: patent publication US9938335B2, “Glucagon and GLP-1 co-agonist compounds” (Eli Lilly and Company, priority 2015, dated 2018)
# Like-named read-outs stand apart in the source and are kept apart here. Marks after values point to notes of the source that are not given here. Starred links: 1 amine or outer side, 2 acyl side, 3 side chain; linkers in the order of their positions; H or OH if unused. Non-standard residues stand in square brackets, D forms with d. Residues, ends and D or L forms follow the SMILES beside them. Groups on a side chain read outwards from the residue. *: point of attachment. C20 diacid = O=C(O)CCCCCCCCCCCCCCCCCCC(=O)*; γGlu = O=C(O)[C@H](CCC(=O)[*:2])N[*:1]; AEEA = NCCOCCOCC(=O)O; Aib = CC(C)(N)C(=O)O
# Key:
# [1] = tested on: DIO mice (C57BL/6); test: Chronic treatment in DIO mice (body weight, fat, food intake); assay type: in vivo, mouse
# Experimental: The effects on food intake and body weight/fat are evaluated in DIO mice. Five to six months old DIO mice (C57BL/6) from Taconic Biosciences are used in this study. Animals are individually housed in a temperature-controlled (24° C.) facility with a 12 hour light/dark cycle (lights on 6:00), and free access to food and water. The mice are acclimated to the facility for two weeks. The day before the study start, fat mass is measured by nuclear magnetic resonance (NMR) using an Echo Medical System (Houston, Tex.) instrument. The mice are randomized to treatment groups (N=7/group) based on body weight and fat mass so each group had similar starting mean body weight and fat mass. […] SC injections are made on Day 1, 4, 7, 10, and 13. Body weight and food intake are measured right before each injection throughout the study. Percent changes in body weight are calculated as follows: […]
# At the completion of the study, total fat mass is measured again by NMR. Statistics are analyzed using ANOVA with Dunnett's comparison by JMP 6. Significance is denoted at p≤0.05 vs. vehicle.
# [2] = target: T1, Human Gcg-R (Homo sapiens, UniProt P47871); test: Functional hGcg-R assay (cAMP HTRF, HEK-293 clonal cell line); assay type: cell-based
# T1 construct: expressed in transfected cells; host or cells: HEK-293 clonal cell line over-expressing the receptor
# T1 sequence (P47871 26-477): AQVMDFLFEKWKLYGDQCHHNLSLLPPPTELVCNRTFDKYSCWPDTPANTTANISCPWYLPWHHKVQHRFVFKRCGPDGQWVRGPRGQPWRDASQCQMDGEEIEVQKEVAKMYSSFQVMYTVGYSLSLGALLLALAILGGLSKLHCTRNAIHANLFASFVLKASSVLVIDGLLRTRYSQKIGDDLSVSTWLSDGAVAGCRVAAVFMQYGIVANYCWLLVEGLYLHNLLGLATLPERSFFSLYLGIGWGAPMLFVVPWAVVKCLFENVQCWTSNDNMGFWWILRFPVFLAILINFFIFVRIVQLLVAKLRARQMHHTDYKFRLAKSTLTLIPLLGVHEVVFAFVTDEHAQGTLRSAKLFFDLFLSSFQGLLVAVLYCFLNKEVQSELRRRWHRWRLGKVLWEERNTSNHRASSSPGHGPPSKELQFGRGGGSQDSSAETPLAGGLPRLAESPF
# [3] = Solubility (RP-HPLC and HPLC-SEC, 1 week at 4° C.); assay type: physicochemical
# Experimental: Solubility of compounds of the present invention is measured in an Agilent 1100 HPLC, an Agilent 1200 HPLC and a Nanodrop 2000. The following HPLC columns are used:
# (a) RP-HPLC: Waters Symmetry Shield C18, 3.6 um, 4.6×100 mm
# (b) HPLC-SEC: Tosoh Biosciences, TSK2000SWXL […]
# All peptide concentrations are made at 10 mg/mL in the following:
# (a) 10 mM Tris pH 8.0+3 mg/mL m-cresol
# (b) 10 mM Tris pH 8.0+3 mg/mL m-cresol+150 mM NaCl
# (c) 10 mM Tris pH 8.0+3 mg/mL m-cresol+0.02% Tween-20
# 5 mL of 10 mg/mL peptide dissolved in 10 mM Tris at pH 8.0 is concentrated to approximately 20 mg/mL using Amicon-ultra 3 kDa MWCO devices. The solution is filtered using Millivex 0.22 μM filters (PVDF membrane) and the final concentration is measured by the NanoDrop spectrometer. This stock solution is used to formulate to the final conditions stated above using 3× m-cresol, 10× NaCl, and 100× Tween-20 stock solutions. A 10 mg/mL PBS solution is also prepared by dissolving directly at 5 mg/mL and concentrating using Amicon-ultra 3 kDa MWCO devices.
# Each solution is placed in a refrigerator at 4° C. for 1 week, with analysis by RP-HPLC to assess concentration and HPLC-SEC to assess HMW species formation. Analyses completed at T-0 week and T-1 week.
# The solubility of Compounds 1-4 was measured essentially as described in this assay.
# [4] = tested on: DIO mice (C57BL/6); test: Glycemic control in DIO mice; assay type: in vivo, mouse; settings: for Blood glucose (mg/dL) post-injection, Mean: male DIO mice, 25 nmol/kg sc once
# Experimental: Five to six months old male DIO mice (C57BL/6) from Taconic Biosciences are used in this study. Animals are individually housed in a temperature-controlled (24° C.) facility with a 12 hour light/dark cycle (lights on 6:00), and free access to food and water. After two weeks acclimation to the facility, the mice are randomized to treatment groups (n=7/group) based on their body weight and blood glucose. Mice are injected subcutaneously once with vehicle or compounds (25 nmol/kg). Blood glucose is monitored 2 and 8 hours post-injection and then once a day at 08:00 for 4 days. OGTTs are performed at 44 and 78 hours post the peptide injection. Statistics are analyzed using ANOVA with Dunnett's comparison by JMP 6. Significance is denoted at p≤0.05 vs vehicle.
# [5] = target: hGcg-R (Homo sapiens, UniProt P47871); test: hGcg-R Binding Assay (SPA radioligand competition, 293HEK membranes); settings: read-out: Ki, nM ± SEM at the hGcg-R
# Chain of hGcg-R (P47871 26-477): as above
# [6] = Viscosity (Rheosense mVroc Viscometer); assay type: physicochemical; settings: approximately 10 mg/mL peptide in 10 mM Tris + 3 mg/mL m-cresol at pH 8.0; 25° C.; shear rate 1934 s^−1
# Experimental: Viscosity of compounds of the present invention is measured in a Rheosense mVroc Viscometer with the following settings:
# (a) Syringe size: 500 μL syringe
# (b) Flow Rate: 100 μL/min flow rate
# (c) Average Temperature: 25° C.
# (d) Shear Rate: 1934 s^−1
# Dry powder (compound) is weighed out, dissolved in water as a cloudy precipitate, and titrated to approximately pH 8.0 with 1N NaOH. The solution is sonicated and swirled by hand until peptide is in solution. Samples are sterile filtered (0.22 μm PVDF filters). Samples are then analyzed by UV-Vis to assess stock solution concentrations. Solutions are diluted to final concentration using 3× m-cresol in 10 mM Tris pH 8.0 buffer to final concentrations of approximately 10 mg/mL peptide by weight in 10 mM Tris+3 mg/mL m-cresol at pH 8.0. Samples were filtered through 0.22 μm filters immediately prior to viscosity analysis. 25 μL of sample are removed to verify concentration by RP-HPLC before and after analysis.
# Water and buffer control samples are measured before and after each sample is analyzed. The instrument is washed with buffer (3×) in between analysis of each sample. The samples are loaded into individual syringes and analyzed. The first measurement is not included in the final calculation to allow for equilibration with the system. Samples are then analyzed in triplicate (n=3).
# The viscosity of Compounds 1-4 was measured essentially as described in this assay.
# [7] = target: T2, hGLP-1-R (Homo sapiens, UniProt P43220); test: Functional hGLP-1-R assay (cAMP HTRF, HEK-293 clonal cell line); assay type: cell-based; design: expressed in transfected cells; host or cells: HEK-293 clonal cell line over-expressing the receptor
# T2 sequence (P43220 24-463): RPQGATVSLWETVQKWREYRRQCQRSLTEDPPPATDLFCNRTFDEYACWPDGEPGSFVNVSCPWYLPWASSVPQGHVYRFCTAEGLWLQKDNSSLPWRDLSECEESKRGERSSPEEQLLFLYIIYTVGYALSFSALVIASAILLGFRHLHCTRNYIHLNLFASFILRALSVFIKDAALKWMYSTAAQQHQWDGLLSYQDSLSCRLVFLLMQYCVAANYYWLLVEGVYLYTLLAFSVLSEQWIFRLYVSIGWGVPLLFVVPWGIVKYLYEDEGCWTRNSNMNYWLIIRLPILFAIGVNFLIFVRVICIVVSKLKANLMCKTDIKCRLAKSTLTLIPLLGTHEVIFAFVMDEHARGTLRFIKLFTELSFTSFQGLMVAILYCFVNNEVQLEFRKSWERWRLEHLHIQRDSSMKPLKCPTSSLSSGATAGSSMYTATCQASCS
# Experimental: After a 60 minute incubation at room temperature, the resulting increase in intracellular cAMP (adenosine 3′,5′-cyclic monophosphate) is quantitatively determined using the CisBio cAMP Dynamic 2 HTRF Assay Kit (62AM4PEJ). cAMP levels within the cell are detected by adding the cAMP-d2 conjugate in cell lysis buffer (20 μl) followed by the antibody anti-cAMP-Eu^3+-Cryptate, also in cell lysis buffer (20 μl).
# A relative EC50 value and percent top (Emax) are derived by non-linear regression analysis using the percent maximal response vs. the concentration of peptide added, fitted to a four-parameter logistic equation (Genedata Screener®).
# Means for EC50 are expressed as Geometric means±standard error of the mean (SEM) with the number of replicates (n) indicated in parenthesis. Means for Emax are expressed as the arithmetic mean±standard error. ND signifies that agonist activity was not detected.
# [8] = target: T2, hGLP-1-R; test: hGLP-1R Binding Assay (SPA radioligand competition, 293HEK membranes); design: expressed in transfected cells; host or cells: 293HEK, stably transfected with plasmid phD, Hygromycin-selected; crude plasma membranes; settings: read-out: Ki, nM ± SEM at the hGLP-1-R
# [9] = 15 nmol/kg sc every three days for 15 days
# [10] = 30 nmol/kg sc every three days for 15 days
smiles,measurement,setting,value
CC(C)C[C@H](NC(=O)[C@H](CC(C)C)NC(=O)[C@H](Cc1c[nH]c2ccccc12)NC(=O)[C@H](CCC(=O)O)NC(=O)[C@@H](NC(=O)[C@H](Cc1ccccc1)NC(=O)[C@H](CCC(=O)O)NC(=O)[C@H](CCCCNC(=O)COCCOCCNC(=O)COCCOCCNC(=O)CC[C@H](NC(=O)CC[C@H](NC(=O)CCCCCCCCCCCCCCCCCCC(=O)O)C(=O)O)C(=O)O)NC(=O)[C@H](C)NC(=O)[C@H](CCCCN)NC(=O)[C@H](CCCCN)NC(=O)[C@H](CCC(=O)O)NC(=O)[C@H](CC(=O)O)NC(=O)[C@H](CC(C)C)NC(=O)[C@H](Cc1ccc(O)cc1)NC(=O)[C@H](CCCCN)NC(=O)[C@H](CO)NC(=O)[C@H](Cc1ccc(O)cc1)NC(=O)[C@H](CC(=O)O)NC(=O)[C@H](CO)NC(=O)[C@@H](NC(=O)[C@H](Cc1ccccc1)NC(=O)[C@@H](NC(=O)CNC(=O)[C@H](CCC(N)=O)NC(=O)C(C)(C)NC(=O)[C@@H](N)Cc1c[nH]cn1)[C@@H](C)O)[C@@H](C)O)C(C)C)C(=O)N[C@@H](CO)C(=O)NCC(=O)NCC(=O)N1CCC[C@H]1C(=O)N[C@@H](CO)C(=O)N[C@@H](CO)C(=O)NCC(N)=O [Compound 4] (H-H[Aib]QGTFTSDYSKYLDEKKAK([AEEA-AEEA-γGlu-γGlu-C20 diacid])EFVEWLLSGGPSSG-NH2; N-terminus assumed),Body Fat (% change vs. vehicle from Day 1),[1]; [9],−26* %
same,Body Weight (% change vs. vehicle from Day 1),[1]; [9],−15* %
same,Body Fat (% change vs. vehicle from Day 1),[1]; [10],−69* %
same,Body Weight (% change vs. vehicle from Day 1),[1]; [10],−39* %
same,Emax,[2]; HEK293,116 ± 4%
same,EC50,"[2]; cAMP, 60 minute incubation, 0.25% FBS, 0.05% BSA, geometric mean, read-out: Human Gcg-R EC50, nM ± SEM, (n)",68.8 ± 7.2 nM
same,solubility at 1 week,"[3]; 10 mM Tris pH 8.0 + 3 mg/mL m-cresol + 0.02% Tween-20, Tris pH 8 + 3 mg/mL m-cresol + 0.02% Tween-20",10000 µg/mL
same,solubility at 1 week,"[3]; 10 mM Tris pH 8.0 + 3 mg/mL m-cresol + 150 mM NaCl, Tris pH 8 + 3 mg/mL m-cresol + 150 mm NaCl",10000 µg/mL
same,solubility at 1 week,"[3]; 10 mM Tris pH 8.0 + 3 mg/mL m-cresol, Tris pH 8 + 3 mg/mL m-cresol",10000 µg/mL
same,HMW species formation by SEC-HPLC,[3]; 1 week at 4° C.,No observed HMW species formation by SEC-HPLC;
same,solubility at 1 week,"[3]; PBS pH 7.4, pH 7.4, read-out: solubility in PBS, pH 7.4",10000 µg/mL
same,visible precipitation or phase separation,[3]; after 1 week storage at 4° C.,No visible precipitation or phase separation observed after 1 week
same,44 hours Glucose AUC (% of Vehicle),"[4]; OGTT 44 hours post-injection, 25 nmol/kg sc",41* % of Vehicle
same,78 hours Glucose AUC (% of Vehicle),"[4]; OGTT 78 hours post-injection, 25 nmol/kg sc",60* % of Vehicle
same,glucose excursions post an oral glucose challenge,"[4]; OGTTs at 44 and 78 hours post injection, 25 nmol/kg",lower glucose excursions post an oral glucose challenge at both time points
same,"Blood glucose (mg/dL) post-injection, Mean",[4]; 2 hours post-injection,110.2 mg/dL
same,"Blood glucose (mg/dL) post-injection, Mean",[4]; 8 hours post-injection,91.5 mg/dL
same,"Blood glucose (mg/dL) post-injection, Mean",[4]; 24 hours post-injection,87.4 mg/dL
same,"Blood glucose (mg/dL) post-injection, Mean",[4]; 48 hours post-injection,102.9 mg/dL
same,"Blood glucose (mg/dL) post-injection, Mean",[4]; 72 hours post-injection,115.7 mg/dL
same,"Blood glucose (mg/dL) post-injection, Mean",[4]; 96 hours post-injection,104.6 mg/dL
same,Ki,[5],27.4 ± 3.3 nM
same,500 μL syringe Viscosity,[6],1.05 cP or mPa-s
same,Emax,[7]; HEK293,85.2 ± 6%
same,EC50,"[7]; cAMP, 60 minute incubation, 0.25% FBS, 0.05% BSA, geometric mean, read-out: Human GLP-1-R EC50, nM ± SEM (n)",106 ± 18 nM
same,Ki,[8],20.2 ± 8.2 nM
